Measured values: patent US20060241172A1, “Benzodioxane and benzodioxolane derivatives and uses thereof” (Wyeth, priority 2005, published 2006)
Read-outs that look alike come from different tables or passages of the source.

How the values were obtained:
[1] = target: T1, human 5-hydroxytryptamine-2C (h5-HT2C) receptor (Homo sapiens, UniProt P28335); experiment: 5-HT2C binding: [125I]DOI displacement in membranes of transfected CHO cells
T1 construct: expressed in transfected cells; host or cells: CHO (Chinese Hamster Ovary) cells; membranes
T1 sequence (P28335 33-458): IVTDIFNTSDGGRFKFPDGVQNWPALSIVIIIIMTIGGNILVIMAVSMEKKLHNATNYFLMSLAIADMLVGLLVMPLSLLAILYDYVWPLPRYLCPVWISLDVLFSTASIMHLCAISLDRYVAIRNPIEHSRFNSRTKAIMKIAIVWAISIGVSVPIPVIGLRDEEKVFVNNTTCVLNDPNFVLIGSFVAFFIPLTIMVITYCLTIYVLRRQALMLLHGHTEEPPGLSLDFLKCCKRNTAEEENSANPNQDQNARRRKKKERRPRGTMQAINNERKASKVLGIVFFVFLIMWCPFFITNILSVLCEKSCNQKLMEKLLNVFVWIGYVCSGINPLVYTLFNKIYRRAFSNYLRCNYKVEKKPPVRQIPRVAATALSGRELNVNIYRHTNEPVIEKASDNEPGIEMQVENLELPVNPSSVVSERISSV

human 5-HT2C receptor = target: T2, human 5-HT2C receptor (Homo sapiens, UniProt P28335); experiment: 5-HT2C receptor-stimulated calcium mobilization (FLIPR) in CHO cells; type: cell-based; details: for Emax: CHO, read-out: 5-HT2C Function EMax (%); for EC50: read-out: 5-HT2C Function EC50
T2 sequence (P28335 33-458): T1 sequence (P28335 33-458)

[2] = read-out: 5-HT2C Binding Ki avg

Row | SMILES | Ki [1, 2] | Emax (human 5-HT2C receptor) | EC50 (human 5-HT2C receptor) | Ki ([1]; reference compounds, 95% confidence interval in the next column, read-out: Ki)
1 | NCC1Oc2cc(Cl)cc(-c3cc(Cl)ccc3Cl)c2O1 (stereo not drawn) [Compound I-98, [6-Chloro-4-(2,5-dichloro-phenyl)-benzo[1,3]dioxol-2-yl]-methylamine] | < 50 nM | 80% | < 100 nM | 
2 | NC[C@H]1COc2cc(Cl)cc(-c3ccc(Cl)cc3Cl)c2O1 [Compound I-64, (2S)-[6-Chloro-8-(2,4-dichloro-phenyl)-2,3-dihydro-benzo[1,4]dioxin-2-yl]-methyl amine] | < 50 nM | 60% | 100 to 500 nM | 
3 | Clc1ccc(-c2cccc3c2OC(CNC2CCC2)CO3)c(Cl)c1 (stereo not drawn) [Compound I-45, N-{[8-(2,4-Dichlorophenyl)-2,3-dihydro-1,4-benzodioxin-2-yl]methyl}cyclobutanamine] | > 200 nM | 30% | > 500 nM | 
4 | NC[C@H]1Oc2cc(F)cc(-c3c(Cl)cccc3Cl)c2O1 [Compound I-85, 1-[(2S)-4-(2,6-dichlorophenyl)-6-fluoro-1,3-benzodioxol-2-yl]methanamine] | < 50 nM | 90% | < 100 nM | 
5 | NCC1Oc2cc(F)cc(-c3cc(Cl)ccc3Cl)c2O1 (stereo not drawn) [Compound I-81, 1-[4-(2,5-Dichloro-phenyl)-6-fluoro-1,3-benzodioxol-2-yl]methanamine] | < 50 nM | 80% | < 100 nM | 
6 | NCC1Oc2cc(F)cc(-c3ccccc3Cl)c2O1 (stereo not drawn) [Compound I-84, 1-[4-(2-Chloro-phenyl)-6-fluoro-1,3-benzodioxol-2-yl]methanamine] | < 50 nM | 80% | < 100 nM | 
7 | COc1cccc(-c2cc(Cl)cc3c2O[C@@H](CN)CO3)c1OC [Compound I-63, (2S)-[6-Chloro-8-(2,3-dimethoxy-phenyl)-2,3-dihydro-benzo[1,4]dioxin-2-yl]-methyl amine] | < 50 nM | 50% | > 500 nM | 
8 | NCC1Oc2cc(Cl)cc(-c3ccccc3Cl)c2O1 (stereo not drawn) [Compound I-90, [6-Chloro-4-(2-chloro-phenyl)-benzo[1,3]dioxol-2-yl]-methylamine] | < 50 nM | 80% | < 100 nM | 
9 | Cc1ccccc1-c1cc(Cl)cc2c1OC(CN)O2 (stereo not drawn) [Compound I-91, [6-Chloro-4-(2-methyl-phenyl)-benzo[1,3]dioxol-2-yl]-methylamine] | < 50 nM | 80% | < 100 nM | 
10 | COc1ccc(Cl)cc1-c1cc(Cl)cc2c1OC(CN)O2 (stereo not drawn) [Compound I-94, [6-Chloro-4-(2-methoxy-5-chloro-phenyl)-benzo[1,3]dioxol-2-yl]-methylamine] | > 200 nM |  |  | 
11 | CSc1ccc2c(c1)C(N1CCN(C)CC1)Cc1ccccc1S2 (stereo not drawn) [Methiothepin, reference compound] |  |  |  | 4.6 nM
12 | COc1cccc(-c2cc(Cl)cc3c2OC(CN)O3)c1OC (stereo not drawn) [Compound I-95, [6-Chloro-4-(2,3-dimethoxy-phenyl)-benzo[1,3]dioxol-2-yl]-methylamine] | 50 to 200 nM |  |  | 
13 | COc1ccc(OC)c(-c2cc(Cl)cc3c2OC(CN)O3)c1 (stereo not drawn) [Compound I-100, [6-Chloro-4-(2,5-dimethoxy-phenyl)-benzo[1,3]dioxol-2-yl]-methylamine] | > 200 nM |  |  | 
14 | CCNCC1Oc2cc(F)cc(-c3ccccc3Cl)c2O1 (stereo not drawn) [Compound I-88, N-{[4-(2-Chlorophenyl)-6-fluoro-1,3-benzodioxol-2-yl]methyl}ethanamine] | 50 to 200 nM |  |  | 
15 | C[C@]1(CN)COc2cccc(-c3ccc(Cl)cc3)c2O1 [Compound I-51, {[(2S)-8-(4-Chlorophenyl)-2-methyl-2,3-dihydro-1,4-benzodioxin-2-yl]methyl}amine] | > 200 nM |  |  | 
16 | C[C@]1(CN)COc2cccc(-c3ccsc3)c2O1 [Compound I-53, {[(2S)-2-Methyl-8-thien-3-yl-2,3-dihydro-1,4-benzodioxin-2-yl]methyl}amine] | > 200 nM |  |  | 
17 | Cc1cc(Cl)ccc1-c1cc(Cl)cc2c1OC(CN)O2 (stereo not drawn) [Compound I-97, [6-Chloro-4-(4-chloro-2-methyl-phenyl)-benzo[1,3]dioxol-2-yl]-methylamine] | 50 to 200 nM |  |  | 
18 | C[C@]1(CN)COc2cccc(-c3cccc(Cl)c3)c2O1 [Compound I-50, {[(2S)-8-(3-Chlorophenyl)-2-methyl-2,3-dihydro-1,4-benzodioxin-2-yl]methyl}amine] | > 200 nM |  |  | 
19 | NCC1Oc2cc(F)cc(-c3ccccc3)c2O1 (stereo not drawn) [Compound I-77, 1-(6-Fluoro-4-phenyl-1,3-benzodioxol-2-yl)methanamine] | 50 to 200 nM |  |  | 
20 | COc1ccc(Cl)cc1-c1cc(Cl)cc2c1O[C@@H](CN)CO2 [Compound I-68, (2S)-[6-Chloro-8-(5-chloro-2-methoxy-phenyl)-2,3-dihydro-benzo[1,4]dioxin-2-yl]-methylamine] | 50 to 200 nM |  |  | 
21 | NCC1Oc2cc(Cl)cc(-c3cc(F)ccc3F)c2O1 (stereo not drawn) [Compound I-99, [6-Chloro-4-(2,5-difluoro-phenyl)-benzo[1,3]dioxol-2-yl]-methylamine] | 50 to 200 nM |  |  | 
22 | C[C@]1(CN)COc2cccc(-c3ccccc3)c2O1 [Compound I-48, {[(2S)-2-Methyl-8-phenyl-2,3-dihydro-1,4-benzodioxin-2-yl]methyl}amine] | > 200 nM |  |  | 
23 | COc1ccccc1-c1cc(Cl)cc2c1OC(CN)O2 (stereo not drawn) [Compound I-92, [6-Chloro-4-(2-methoxy-phenyl)-benzo[1,3]dioxol-2-yl]-methylamine] | 50 to 200 nM |  |  | 
24 | CN(C)CC1Oc2cc(F)cc(-c3ccccc3Cl)c2O1 (stereo not drawn) [Compound I-89, 1-[4-(2-chlorophenyl)-6-fluoro-1,3-benzodioxol-2-yl]-N,N-dimethylmethanamine] | 50 to 200 nM |  |  | 
25 | NCC1Oc2cc(F)cc(-c3cccc(Cl)c3)c2O1 (stereo not drawn) [Compound I-78, 1-[4-(3-Chlorophenyl)-6-fluoro-1,3-benzodioxol-2-yl]methanamine] | 50 to 200 nM |  |  | 

Now from value to molecule, other results behind:

Row | Ki [1, 2] | Emax (human 5-HT2C receptor) | EC50 (human 5-HT2C receptor) | SMILES | Ki ([1]; reference compounds, 95% confidence interval in the next column, read-out: Ki)
26 | < 50 nM | 20% | 100 to 500 nM | CN(C)CC1COc2cccc(-c3ccc(Cl)cc3Cl)c2O1 (stereo not drawn) [Compound I-39, {[8-(2,4-Dichlorophenyl)-2,3-dihydro-1,4-benzodioxin-2-yl]methyl}dimethylamine] | 
27 | > 200 nM | 30% | > 500 nM | C=CCNCC1COc2cccc(-c3ccc(Cl)cc3Cl)c2O1 (stereo not drawn) [Compound I-40, N-{[8-(2,4-Dichlorophenyl)-2,3-dihydro-1,4-benzodioxin-2-yl]methyl}prop-2-en-1-amine] | 
28 | < 50 nM | 60% | < 100 nM | NCC1COc2cccc(-c3cc(F)ccc3F)c2O1 (stereo not drawn) [Compound I-15, {[8-(2,5-Difluorophenyl)-2,3-dihydro-1,4-benzodioxin-2-yl]methyl}amine] | 
29 | < 50 nM | 70% | < 100 nM | NCC1COc2cccc(-c3cccc(F)c3F)c2O1 (stereo not drawn) [Compound I-13, {[8-(2,3-Difluorophenyl)-2,3-dihydro-1,4-benzodioxin-2-yl]methyl}amine] | 
30 | < 50 nM | 70% | < 100 nM | NCC1COc2cccc(-c3ccccc3F)c2O1 (stereo not drawn) [Compound I-2, {[8-(2-Fluorophenyl)-2,3-dihydro-1,4-benzodioxin-2-yl]methyl}amine] | 
31 | > 200 nM | 20% | > 500 nM | CC(C)NCC1COc2cccc(-c3ccc(Cl)cc3Cl)c2O1 (stereo not drawn) [Compound I-37, N-{[8-(2,4-Dichlorophenyl)-2,3-dihydro-1,4-benzodioxin-2-yl]methyl}propan-2-amine] | 
32 | < 50 nM | 50% |  | NC[C@H]1COc2cccc(-c3ccccc3C(F)(F)F)c2O1 [Compound I-57, 1-{(2S)-8-[2-(trifluoromethyl)phenyl]-2,3-dihydro-1,4-benzodioxin-2-yl}methanamine] | 
33 | < 50 nM | 50% | < 100 nM | NC[C@H]1COc2ccc(Cl)c(-c3ccccc3Cl)c2O1 [Compound I-70, (2S)-[7-Chloro-8-(2-chloro-phenyl)-2,3-dihydro-benzo[1,4]dioxin-2-yl]-methylamine] | 
34 | 50 to 200 nM |  | > 500 nM | CNCC1COc2cccc(-c3cccc(OC)c3OC)c2O1 (stereo not drawn) [Compound I-30, {[8-(2,3-Dimethoxyphenyl)-2,3-dihydro-1,4-benzodioxin-2-yl]methyl}methylamine] | 
35 | < 50 nM | 70% | < 100 nM | NCC1Oc2cc(F)cc(-c3ccccc3F)c2O1 (stereo not drawn) [Compound I-83, 1-[4-(2-Fluoro-phenyl)-6-fluoro-1,3-benzodioxol-2-yl]methanamine] | 
36 | < 50 nM |  |  | NC[C@H]1COc2cccc(-c3ccccc3Cl)c2O1 [Compound I-56, 1-[(2S)-8-(2-CHLOROPHENYL)-2,3-DIHYDRO-1,4-BENZODIOXIN-2-YL]METHANAMINE] | 
37 | 50 to 200 nM |  |  | NCC1Oc2cc(Cl)cc(-c3ccccc3F)c2O1 (stereo not drawn) [Compound I-93, [6-Chloro-4-(2-fluoro-phenyl)-benzo[1,3]dioxol-2-yl]-methylamine] | 
38 | < 50 nM |  |  | Cc1ccccc1-c1c(Cl)ccc2c1O[C@@H](CN)CO2 [Compound I-72, ((2S)-7-Chloro-8-o-tolyl-2,3-dihydrobenzo[b][1,4]dioxin-2-yl)methanamine] | 
39 | > 200 nM |  |  | COc1ccccc1-c1cccc2c1O[C@@](C)(CN)CO2 [Compound I-52, {[(2S)-8-(2-Methoxyphenyl)-2-methyl-2,3-dihydro-1,4-benzodioxin-2-yl]methyl}amine] | 
